Tested on: patients with advanced or metastatic solid tumors
Test: Trial 1403-0001 Phase Ia dose escalation, Arm B (D1 D8 q4w): adverse events
Format: in vivo
Settings: for Subjects with any AE, % / Subjects with investigator defined drug-related AEs, % / Subjects with maximum CTC Grade 1, % / Subjects with maximum CTC Grade 2, % / Subjects with maximum CTC Grade 3, % / Subjects with maximum CTC Grade 4, % / Subjects with maximum CTC Grade 5, % / Subjects with serious AEs, % / AEs leading to Discontinuation: Dose limiting toxicity, % / AEs leading to Discontinuation: Other adverse event, % / Patients with Dose limiting toxicity, % / Serious AEs: Cogenital Anomaly or Birth Defect, % / Serious AEs: Is Life Threatening, % / Serious AEs: Other Medically Important Serious Event, % / Serious AEs: Persists of Signif. Disability/Incapacity, % / Serious AEs: Requires or Prolongs Hospitalization, % / Serious AEs: Results in Death, % / Subjects with AEs leading to Discontinuation of trial drug, % / Subjects with AEs leading to dose reduction of trial drug, %: Arm B D1 D8 q4w
Procedure: The Phase Ia dose escalation part aimed to define the Maximum Tolerated Dose (MTD) and the Recommended Dose for Expansion (RDE) for the MDM2-antagonist of formula I based on safety and tolerability, pharmacokinetics, pharmacodynamics, and preliminary efficacy. The RDE will be further explored in the Phase Ib expansion part of the trial.
Dose levels evaluated in Arm A were 10, 20, 30, 45, 50, 60, and 80 mg. Dose levels evaluated in Arm B (referring to the dose administered on Day 1 and Day 8) were 5, 10, 15, 20, 30, 45, and 60 mg.

Question: With `Cc1c(C(=O)O)ccc2c3n(nc12)[C@@H]1[C@H](C3)N(CC2CC2)[C@@]2(C(=O)Nc3cc(Cl)ccc32)[C@H]1c1cccc(Cl)c1F` [MDM2-antagonist of formula I, (2′S,3′S,3a'S,10a'S)-6-chloro-3′-(3-chloro-2-fluorophenyl)-1′-(cyclopropylmethyl)-6′-methyl-2-oxo-1,2,3′,3a′,10′,10a′-hexahydro-1′H-spiro[indole-3,2′-pyrrolo[2′,3′:4,5]pyrrolo[1,2-b]indazole]-7′-carboxylic acid] as the compound, how does the “Subjects with any AE, %” value (30 mg) read?
Answer: The value was 100%.

Question: What about the “Subjects with investigator defined drug-related AEs, %” value (30 mg) of the same compound?
Answer: Its value is 100%.

Question: What about the “Subjects with maximum CTC Grade 1, %” value (30 mg) of the same compound?
Answer: Its value is 50.0%.

Question: What about the “Subjects with maximum CTC Grade 2, %” value (30 mg) of the same compound?
Answer: The value was 25.0%.

Question: And the “Subjects with maximum CTC Grade 3, %” value (30 mg)?
Answer: Its value is 0%.

Question: What about the “Subjects with maximum CTC Grade 4, %” value (30 mg) of the same compound?
Answer: Its value is 25.0%.

Question: What about the “Subjects with maximum CTC Grade 5, %” value (30 mg) of the same compound?
Answer: Its value is 0%.

Question: What about the “Subjects with serious AEs, %” value (30 mg) of the same compound?
Answer: Its value is 25.0%.

Question: What about the “AEs leading to Discontinuation: Dose limiting toxicity, %” value (shortened to “AEs leading … Dose limiting toxicity, %”) (45 mg) of the same compound?
Answer: The value was 0%.

Question: What about the “AEs leading to Discontinuation: Other adverse event, %” value (“AEs leading … Other adverse event, %” for short) (45 mg) of the same compound?
Answer: The value was 16.7%.

Question: And the “Patients with Dose limiting toxicity, %” value (45 mg)?
Answer: Its value is 16.7%.

Question: And the “Serious AEs: Cogenital Anomaly or Birth Defect, %” value (45 mg)?
Answer: The value was 0%.

Question: And the “Serious AEs: Is Life Threatening, %” value (45 mg)?
Answer: Its value is 0%.

Question: What about the “Serious AEs: Other Medically Important Serious Event, %” value (45 mg) of the same compound?
Answer: Its value is 16.7%.

Question: What about the “Serious AEs: Persists of Signif. Disability/Incapacity, %” value (45 mg) of the same compound?
Answer: Its value is 16.7%.

Question: And the “Serious AEs: Requires or Prolongs Hospitalization, %” value (45 mg)?
Answer: The value was 33.3%.

Question: What about the “Serious AEs: Results in Death, %” value (45 mg) of the same compound?
Answer: Its value is 0%.

Question: What about the “Subjects with AEs leading to Discontinuation of trial drug, %” value (45 mg) of the same compound?
Answer: The value was 16.7%.

Question: And the “Subjects with AEs leading to dose reduction of trial drug, %” value (45 mg)?
Answer: Its value is 16.7%.

Question: And the “Subjects with any AE, %” value (45 mg)?
Answer: Its value is 100%.

Question: What about the “Subjects with investigator defined drug-related AEs, %” value (45 mg) of the same compound?
Answer: Its value is 100%.

Question: What about the “Subjects with maximum CTC Grade 1, %” value (45 mg) of the same compound?
Answer: Its value is 0%.

Question: What about the “Subjects with maximum CTC Grade 2, %” value (45 mg) of the same compound?
Answer: Its value is 33.3%.

Question: And the “Subjects with maximum CTC Grade 3, %” value (45 mg)?
Answer: The value was 50.0%.

Question: And the “Subjects with maximum CTC Grade 4, %” value (45 mg)?
Answer: The value was 16.7%.

Question: And the “Subjects with maximum CTC Grade 5, %” value (45 mg)?
Answer: The value was 0%.

Question: And the “Subjects with serious AEs, %” value (45 mg)?
Answer: The value was 50.0%.

Question: And the “AEs leading … Dose limiting toxicity, %” value (60 mg)?
Answer: The value was 0%.

Question: What about the “AEs leading … Other adverse event, %” value (60 mg) of the same compound?
Answer: The value was 0%.

Question: What about the “Patients with Dose limiting toxicity, %” value (60 mg) of the same compound?
Answer: Its value is 66.7%.

Question: And the “Serious AEs: Cogenital Anomaly or Birth Defect, %” value (60 mg)?
Answer: Its value is 0%.

Question: And the “Serious AEs: Is Life Threatening, %” value (60 mg)?
Answer: The value was 0%.

Question: What about the “Serious AEs: Other Medically Important Serious Event, %” value (60 mg) of the same compound?
Answer: The value was 0%.

Question: And the “Serious AEs: Persists of Signif. Disability/Incapacity, %” value (60 mg)?
Answer: Its value is 0%.

Question: What about the “Serious AEs: Requires or Prolongs Hospitalization, %” value (60 mg) of the same compound?
Answer: The value was 66.7%.

Question: What about the “Serious AEs: Results in Death, %” value (60 mg) of the same compound?
Answer: Its value is 0%.

Question: And the “Subjects with AEs leading to Discontinuation of trial drug, %” value (60 mg)?
Answer: Its value is 0%.

Question: What about the “Subjects with AEs leading to dose reduction of trial drug, %” value (60 mg) of the same compound?
Answer: The value was 66.7%.

Question: And the “Subjects with any AE, %” value (60 mg)?
Answer: Its value is 100%.

Question: And the “Subjects with investigator defined drug-related AEs, %” value (60 mg)?
Answer: Its value is 100%.

Question: What about the “Subjects with maximum CTC Grade 1, %” value (60 mg) of the same compound?
Answer: Its value is 0%.

Question: And the “Subjects with maximum CTC Grade 2, %” value (60 mg)?
Answer: The value was 0%.

Question: And the “Subjects with maximum CTC Grade 3, %” value (60 mg)?
Answer: Its value is 33.3%.

Question: What about the “Subjects with maximum CTC Grade 4, %” value (60 mg) of the same compound?
Answer: The value was 66.7%.

Question: What about the “Subjects with maximum CTC Grade 5, %” value (60 mg) of the same compound?
Answer: The value was 0%.

Question: What about the “Subjects with serious AEs, %” value (60 mg) of the same compound?
Answer: Its value is 66.7%.

Question: What about the “AEs leading … Dose limiting toxicity, %” value (Total) of the same compound?
Answer: Its value is 0%.

Question: What about the “AEs leading … Other adverse event, %” value (Total) of the same compound?
Answer: The value was 4.0%.

Question: And the “Patients with Dose limiting toxicity, %” value (Total)?
Answer: Its value is 12.0%.

Question: And the “Serious AEs: Cogenital Anomaly or Birth Defect, %” value (Total)?
Answer: Its value is 0%.

Question: And the “Serious AEs: Is Life Threatening, %” value (Total)?
Answer: Its value is 0%.

Question: What about the “Serious AEs: Other Medically Important Serious Event, %” value (Total) of the same compound?
Answer: Its value is 12.0%.

Question: And the “Serious AEs: Persists of Signif. Disability/Incapacity, %” value (Total)?
Answer: Its value is 4.0%.

Question: And the “Serious AEs: Requires or Prolongs Hospitalization, %” value (Total)?
Answer: The value was 28.0%.

Question: What about the “Serious AEs: Results in Death, %” value (Total) of the same compound?
Answer: Its value is 0%.

Question: And the “Subjects with AEs leading to Discontinuation of trial drug, %” value (Total)?
Answer: Its value is 4.0%.

Question: And the “Subjects with AEs leading to dose reduction of trial drug, %” value (Total)?
Answer: Its value is 24%.

Question: What about the “Subjects with any AE, %” value (Total) of the same compound?
Answer: Its value is 100%.

Question: What about the “Subjects with investigator defined drug-related AEs, %” value (Total) of the same compound?
Answer: Its value is 92.0%.

Question: What about the “Subjects with maximum CTC Grade 1, %” value (Total) of the same compound?
Answer: The value was 20.0%.

Question: What about the “Subjects with maximum CTC Grade 2, %” value (Total) of the same compound?
Answer: Its value is 36.0%.

Question: And the “Subjects with maximum CTC Grade 3, %” value (Total)?
Answer: The value was 28.0%.

Question: What about the “Subjects with maximum CTC Grade 4, %” value (Total) of the same compound?
Answer: Its value is 16.0%.

Question: What about the “Subjects with maximum CTC Grade 5, %” value (Total) of the same compound?
Answer: The value was 0%.

Question: And the “Subjects with serious AEs, %” value (Total)?
Answer: Its value is 36.0%.

Question: And the “Subjects with AEs leading to dose reduction of trial drug, %” value (Total, listed as Comp. I)?
Answer: The value was 24.0%.

Question: What about the “AE alopecia, patients” value (Arm B, all 25 patients) of the same compound?
Answer: The value was 24.0%.

Question: What about the “AE decreased appetite, patients” value (Arm B, all 25 patients) of the same compound?
Answer: The value was 40.0%.

Question: What about the “AE diarrhea, patients” value (Arm B, all 25 patients) of the same compound?
Answer: Its value is 44.0%.

Question: What about the “AE fatigue, patients” value (Arm B, all 25 patients) of the same compound?
Answer: Its value is 52.0%.

Question: What about the “AE nausea, patients” value (Arm B, all 25 patients) of the same compound?
Answer: Its value is 92.0%.

Question: And the “AE platelet count decreased, patients” value (Arm B, all 25 patients)?
Answer: Its value is 28.0%.

Question: And the “AE vomiting, patients” value (Arm B, all 25 patients)?
Answer: The value was 64.0%.

Question: And the “Grade 3 AE anemia, patients” value (Arm B, all 25 patients)?
Answer: The value was 8.0%.

Question: And the “Grade 3 AE platelet count decreased, patients” value (Arm B, all 25 patients)?
Answer: Its value is 8.0%.

Question: And the “Grade 4 AE neutrophil count decreased, patients” value (Arm B, all 25 patients)?
Answer: The value was 8.0%.

Question: What about the “Grade 4 AE platelet count decreased, patients” value (Arm B, all 25 patients) of the same compound?
Answer: Its value is 8.0%.

Question: And the “SAE platelet count decreased, patients” value (Arm B, all 25 patients)?
Answer: Its value is 8.0%.

Question: What about the “dose reduction due to diarrhea, patients” value (Arm B, all 25 patients) of the same compound?
Answer: The value was 4.0%.

Question: What about the “dose reduction due to neutropenia and/or thrombocytopenia, patients” value (Arm B, all 25 patients) of the same compound?
Answer: The value was 20.0%.

Question: And the “drug-related AE alopecia, patients” value (Arm B, all 25 patients)?
Answer: The value was 24.0%.

Question: And the “drug-related AE decreased appetite, patients” value (Arm B, all 25 patients)?
Answer: Its value is 28.0%.

Question: And the “drug-related AE diarrhea, patients” value (Arm B, all 25 patients)?
Answer: The value was 32.0%.

Question: And the “drug-related AE fatigue, patients” value (Arm B, all 25 patients)?
Answer: Its value is 40.0%.

Question: And the “drug-related AE nausea, patients” value (Arm B, all 25 patients)?
Answer: Its value is 76.0%.

Question: And the “drug-related AE platelet count decreased, patients” value (Arm B, all 25 patients)?
Answer: Its value is 28.0%.

Question: What about the “drug-related AE vomiting, patients” value (Arm B, all 25 patients) of the same compound?
Answer: Its value is 60.0%.

Question: What about the “fatal AEs” value (Arm B, all 25 patients) of the same compound?
Answer: The value was “No fatal AEs were reported”.
